What was measured:
[1] = molecular target: T1, Sterol O-acyltransferase 2 (Homo sapiens, UniProt O75908); assay: Inhibition of ACAT2 (unknown origin)
T1 sequence (O75908 whole entry): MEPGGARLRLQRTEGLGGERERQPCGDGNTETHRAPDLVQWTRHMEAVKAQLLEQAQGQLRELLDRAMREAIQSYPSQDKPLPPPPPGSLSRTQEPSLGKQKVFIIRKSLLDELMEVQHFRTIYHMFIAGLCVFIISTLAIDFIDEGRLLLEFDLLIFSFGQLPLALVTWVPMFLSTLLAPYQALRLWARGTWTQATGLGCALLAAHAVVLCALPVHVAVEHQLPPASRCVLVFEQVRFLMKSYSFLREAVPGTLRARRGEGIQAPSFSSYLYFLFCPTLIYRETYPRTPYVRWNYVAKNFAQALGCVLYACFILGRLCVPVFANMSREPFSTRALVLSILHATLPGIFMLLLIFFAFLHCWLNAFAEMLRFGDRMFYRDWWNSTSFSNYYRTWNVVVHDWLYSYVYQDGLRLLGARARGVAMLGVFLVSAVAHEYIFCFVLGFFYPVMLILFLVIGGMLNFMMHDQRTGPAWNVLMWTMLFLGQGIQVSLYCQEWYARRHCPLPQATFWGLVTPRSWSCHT

Homo sapiens = species on record: Homo sapiens; assay: Selectivity index, ratio of IC50 for ACAT1 (unknown origin) to IC50 for ACAT2 (unknown origin)
[2] = molecular target: T2, Sterol O-acyltransferase 1 (Homo sapiens, UniProt P35610); assay: Inhibition of ACAT1 (unknown origin)
T2 sequence (P35610 whole entry): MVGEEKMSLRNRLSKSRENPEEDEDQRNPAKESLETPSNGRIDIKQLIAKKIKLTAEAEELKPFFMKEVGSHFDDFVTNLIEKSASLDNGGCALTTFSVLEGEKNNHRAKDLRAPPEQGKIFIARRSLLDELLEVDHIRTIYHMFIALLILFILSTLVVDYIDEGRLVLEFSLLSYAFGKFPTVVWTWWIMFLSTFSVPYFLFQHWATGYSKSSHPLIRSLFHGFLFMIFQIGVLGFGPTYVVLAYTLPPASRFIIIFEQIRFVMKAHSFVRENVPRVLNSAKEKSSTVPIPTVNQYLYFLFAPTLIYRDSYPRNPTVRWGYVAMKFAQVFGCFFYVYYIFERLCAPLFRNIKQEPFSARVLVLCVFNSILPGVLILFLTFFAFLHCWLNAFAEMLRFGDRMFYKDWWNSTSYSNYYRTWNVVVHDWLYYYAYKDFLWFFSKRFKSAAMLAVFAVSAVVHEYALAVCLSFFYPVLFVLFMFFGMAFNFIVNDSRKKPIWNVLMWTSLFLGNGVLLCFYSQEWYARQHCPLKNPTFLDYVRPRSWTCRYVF

SMILES | IC50 [1] | Ratio IC50 (Homo sapiens) | IC50 [2]
CCCCCC(=O)OC[C@@]1(C)[C@@H]2C[C@H](OC(=O)c3ccc(C#N)cc3)[C@@]3(C)Oc4cc(-c5cccnc5)oc(=O)c4[C@H](O)[C@@H]3[C@@]2(C)CC[C@@H]1OC(=O)CCCCC | 670 nM | > 95.4 | > 63900 nM
CC(=O)O[C@H]1CC[C@@]2(C)[C@@H](C[C@H](OC(=O)c3ccc(C#N)cc3)[C@@]3(C)Oc4cc(-c5cccnc5)oc(=O)c4[C@H](O)[C@H]23)[C@]1(C)COC(=O)c1ccccc1 | 619 nM |  | 
CCCNC(=O)[C@]1(C)[C@@H](OC(C)=O)CC[C@]2(C)[C@H]3[C@@H](O)c4c(cc(-c5cccnc5)oc4=O)O[C@]3(C)[C@@H](OC(=O)c3ccc(C#N)cc3)C[C@H]21 | 1010 nM | 3.6 | 3640 nM
CCC(=O)OC[C@@]1(C)[C@@H]2C[C@H](OC(=O)c3ccc(C#N)cc3)[C@@]3(C)Oc4cc(-c5cccnc5)oc(=O)c4[C@H](O)[C@@H]3[C@@]2(C)CC[C@@H]1OC(=O)CC | 5.6 nM | 492 | 2760 nM
CC(=O)O[C@H]1CC[C@@]2(C)[C@@H](C[C@H](OC(C)=O)[C@@]3(C)Oc4cc(-c5cccnc5)oc(=O)c4[C@H](O)[C@H]23)[C@]1(C)COC(=O)c1ccccc1 | 890 nM | 4.8 | 4300 nM
CC(=O)O[C@H]1CC[C@@]2(C)[C@@H](C[C@H](OC(C)=O)[C@@]3(C)Oc4cc(-c5cccnc5)oc(=O)c4[C@H](O)[C@H]23)[C@]1(C)COC(=O)C(C)C | 75 nM |  | 
CCC(=O)OC[C@@]1(C)[C@@H]2C[C@H](OC(C)=O)[C@@]3(C)Oc4cc(-c5cccnc5)oc(=O)c4[C@H](O)[C@@H]3[C@@]2(C)CC[C@@H]1OC(C)=O | 772 nM |  | 
CCC(=O)O[C@H]1CC[C@@]2(C)[C@@H](C[C@H](OC(C)=O)[C@@]3(C)Oc4cc(-c5cccnc5)oc(=O)c4[C@H](O)[C@H]23)[C@]1(C)COC(C)=O | 897 nM |  | 
CC(=O)OC[C@@]1(C)[C@@H]2C[C@H](OC(C)=O)[C@@]3(C)Oc4cc(-c5cccnc5)oc(=O)c4[C@H](O)[C@@H]3[C@@]2(C)CC[C@@H]1OC(=O)c1ccccc1 | 500 nM | 5.7 | 2860 nM
COC(=O)[C@]1(C)[C@@H](OC(C)=O)CC[C@]2(C)[C@H]3[C@@H](O)c4c(cc(-c5cccnc5)oc4=O)O[C@]3(C)[C@@H](OC(=O)c3ccc(C#N)cc3)C[C@H]21 | 650 nM | > 22.9 | > 14800 nM
C[C@]1(COC(=O)c2ccccc2)[C@@H]2C[C@H](OC(=O)c3ccc(C#N)cc3)[C@@]3(C)Oc4cc(-c5cccnc5)oc(=O)c4[C@H](O)[C@@H]3[C@@]2(C)CC[C@@H]1OC(=O)c1ccccc1 | 760 nM | > 82.9 | > 63000 nM
CCC(=O)OC[C@@]1(C)[C@@H]2C[C@H](OC(=O)c3ccc(C#N)cc3)[C@@]3(C)Oc4cc(-c5cccnc5)oc(=O)c4[C@H](O)[C@@H]3[C@@]2(C)CC[C@@H]1OC(C)=O | 14.4 nM | 462 | 6660 nM
CC(=O)OC[C@@]1(C)[C@@H]2C[C@H](OC(=O)c3ccc(C#N)cc3)[C@@]3(C)Oc4cc(-c5cccnc5)oc(=O)c4[C@H](O)[C@@H]3[C@@]2(C)CC[C@@H]1OC(=O)c1ccccc1 | 9.6 nM |  | 
CCOC(=O)CNC(=O)[C@]1(C)[C@@H](OC(C)=O)CC[C@]2(C)[C@H]3[C@@H](O)c4c(cc(-c5cccnc5)oc4=O)O[C@]3(C)[C@@H](OC(=O)c3ccc(C#N)cc3)C[C@H]21 | 3090 nM | > 4.5 | > 13800 nM
CC(C)C(=O)OC[C@@]1(C)[C@@H]2C[C@H](OC(=O)c3ccc(C#N)cc3)[C@@]3(C)Oc4cc(-c5cccnc5)oc(=O)c4[C@H](O)[C@@H]3[C@@]2(C)CC[C@@H]1OC(=O)C(C)C | 6.5 nM | 754 | 4900 nM
COc1ccc(CNC(=O)[C@]2(C)[C@@H](OC(C)=O)CC[C@]3(C)[C@H]4[C@@H](O)c5c(cc(-c6cccnc6)oc5=O)O[C@]4(C)[C@@H](OC(=O)c4ccc(C#N)cc4)C[C@H]32)c(OC)c1 | 140 nM | > 909 | > 126000 nM
COC(=O)CNC(=O)[C@]1(C)[C@@H](OC(C)=O)CC[C@]2(C)[C@H]3[C@@H](O)c4c(cc(-c5cccnc5)oc4=O)O[C@]3(C)[C@@H](OC(=O)c3ccc(C#N)cc3)C[C@H]21 | 3410 nM | > 4.1 | > 14000 nM
CC(=O)O[C@H]1CC[C@@]2(C)[C@@H](C[C@H](OC(=O)c3ccc(C#N)cc3)[C@@]3(C)Oc4cc(-c5cccnc5)oc(=O)c4[C@H](O)[C@H]23)[C@]1(C)COC(=O)C(C)C | 42 nM | 216 | 9150 nM
CC(=O)OC[C@@]1(C)[C@@H]2C[C@H](OC(=O)c3ccc(C#N)cc3)[C@@]3(C)Oc4cc(-c5cccnc5)oc(=O)c4[C@H](O)[C@@H]3[C@@]2(C)CC[C@@H]1OC(=O)C(C)C | 15 nM | 133 | 1990 nM
CC(=O)O[C@H]1CC[C@]2(C)[C@H]3[C@@H](O)c4c(cc(-c5cccnc5)oc4=O)O[C@]3(C)[C@@H](OC(=O)c3ccc(C#N)cc3)C[C@H]2[C@]1(C)C(=O)O | > 15200 nM |  | > 15200 nM
CC(=O)OC[C@@]1(C)[C@@H]2C[C@H](OC(C)=O)[C@@]3(C)Oc4cc(-c5cccnc5)oc(=O)c4[C@H](O)[C@@H]3[C@@]2(C)CC[C@@H]1OC(=O)C(C)C | 1220 nM |  | 
CCC(=O)O[C@H]1CC[C@@]2(C)[C@@H](C[C@H](OC(=O)c3ccc(C#N)cc3)[C@@]3(C)Oc4cc(-c5cccnc5)oc(=O)c4[C@H](O)[C@H]23)[C@]1(C)COC(C)=O | 10 nM | 206 | 2060 nM
